One assay addresses BuChE (Equus caballus, UniProt P81908). The experiment in a line: Ellman assay. Type of assay: biochemical. In general terms: DTNB colorimetry detects thiols as they appear.
A further assay concerns the target AChE (Electrophorus electricus, UniProt O42275). The experiment in a line: Ellman assay. Type of assay: biochemical.

Structures are written as SMILES.

Broadly, the IC50 is the concentration that gives 50% inhibition. Lower therefore signals higher potency.

Sequence of BuChE (P81908 whole entry): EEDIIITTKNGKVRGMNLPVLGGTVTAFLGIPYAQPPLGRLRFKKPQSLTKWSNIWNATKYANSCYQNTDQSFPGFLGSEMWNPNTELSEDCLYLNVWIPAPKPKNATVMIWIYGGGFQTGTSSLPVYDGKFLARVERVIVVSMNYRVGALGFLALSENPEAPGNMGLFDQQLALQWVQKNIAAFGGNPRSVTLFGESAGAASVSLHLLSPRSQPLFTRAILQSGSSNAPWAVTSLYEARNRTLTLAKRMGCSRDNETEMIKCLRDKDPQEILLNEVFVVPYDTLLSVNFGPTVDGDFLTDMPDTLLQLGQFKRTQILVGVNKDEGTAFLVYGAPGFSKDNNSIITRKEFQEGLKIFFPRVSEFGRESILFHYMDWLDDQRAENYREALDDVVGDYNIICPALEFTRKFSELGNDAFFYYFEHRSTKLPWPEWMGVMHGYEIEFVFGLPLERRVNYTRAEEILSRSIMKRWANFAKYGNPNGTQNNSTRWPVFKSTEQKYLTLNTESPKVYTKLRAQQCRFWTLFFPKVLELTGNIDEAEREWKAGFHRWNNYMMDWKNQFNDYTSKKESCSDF
Sequence of AChE (O42275 24-633): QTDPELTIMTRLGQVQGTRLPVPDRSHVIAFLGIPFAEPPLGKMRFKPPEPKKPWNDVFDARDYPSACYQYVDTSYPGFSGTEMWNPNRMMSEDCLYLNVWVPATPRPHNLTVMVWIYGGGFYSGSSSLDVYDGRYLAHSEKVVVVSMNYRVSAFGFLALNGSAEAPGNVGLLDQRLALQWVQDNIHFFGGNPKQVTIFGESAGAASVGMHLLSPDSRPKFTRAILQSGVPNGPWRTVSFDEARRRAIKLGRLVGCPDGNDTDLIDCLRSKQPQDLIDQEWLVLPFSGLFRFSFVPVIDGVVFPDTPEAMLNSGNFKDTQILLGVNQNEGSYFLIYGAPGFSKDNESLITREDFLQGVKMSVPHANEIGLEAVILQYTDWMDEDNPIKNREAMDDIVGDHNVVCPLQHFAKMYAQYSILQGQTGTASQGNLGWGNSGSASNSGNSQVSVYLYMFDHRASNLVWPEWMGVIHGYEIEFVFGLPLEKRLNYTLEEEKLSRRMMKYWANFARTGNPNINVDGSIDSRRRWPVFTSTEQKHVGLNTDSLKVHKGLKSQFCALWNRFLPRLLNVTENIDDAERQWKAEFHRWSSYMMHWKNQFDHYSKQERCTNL

Turning to `O=C(NCCc1c[nH]c2ccc(O)cc12)Nc1cccc2cccnc12` [a3, 1-(2-(5-hydroxy-1H-indol-3-yl)ethyl)-3-(quinolin-8-yl) urea], the figures for the IC50 at BuChE and against AChE were 8.78 ± 0.3 µM and 36.3 ± 0.7 µM, respectively.

For the compound `CN(C)C(=O)Oc1ccc2[nH]cc(CCNC(=O)CNc3cccc4cccnc34)c2c1` [b4, 3-(2-(2-(quinolin-8-ylamino)acetamido)ethyl)-1H-indol-5-yl dimethylcarbamate], the IC50 against BuChE is 0.9 ± 0.1 µM; against AChE, 11.2 ± 0.3 µM.

At AChE, `COc1ccc2[nH]cc(CCNC(=O)CNc3cccc4cccnc34)c2c1` [b2, N-(2-(5-methoxy-1H-indol-3-yl)ethyl)-2-(quinolin-8-ylamino) acetamide] gave a concentration for half-maximal inhibition (IC50) of 13 ± 0.2 µM. Turning to `O=C(CNc1cccc2cccnc12)NCCc1c[nH]c2ccccc12` [b1, N-(2-(1H-indol-3-yl)ethyl)-2-(quinolin-8-ylamino) acetamide], the IC50 on AChE was 11.2 ± 0.4 µM. Take `c1cnc2c(NCCc3c[nH]c4ccccc34)cccc2c1` [c1, N-(2-(1H-indol-3-yl)ethyl) quinolin-8-amine]: the IC50 on BuChE turned out to be 13.5 ± 0.4 µM; on AChE it was 32.7 ± 1.4 µM. As to `COc1ccc2[nH]cc(CCNc3cccc4cccnc34)c2c1` [c2, N-(2-(5-methoxy-1H-indol-3-yl)ethyl) quinolin-8-amine], on BuChE, 4.5 ± 0.3 µM corresponded to half-maximal inhibition (IC50). On the same count and under the same terms, next, `CCN(C)C(=O)Oc1ccc2[nH]cc(CCNC(=O)Nc3cccc4cccnc34)c2c1` [a5, 3-(2-(3-(quinolin-8-yl)ureido)ethyl)-1H-indol-5-yl ethyl (methyl) carbamate]: 2.6 ± 0.4 µM. On to `CCN(C)C(=O)Oc1ccc2[nH]cc(CCNC(=O)CNc3cccc4cccnc34)c2c1` [b5, 3-(2-(2-(quinolin-8-ylamino)acetamido)ethyl)-1H-indol-5-yl ethyl (methyl) carbamate], for which the results for the IC50 on BuChE and at AChE were 0.8 ± 0.1 µM and 13.7 ± 0.6 µM, respectively. As for `COc1ccc2[nH]cc(CCNC(=O)Nc3cccc4cccnc34)c2c1` [a2, 1-(2-(5-methoxy-1H-indol-3-yl)ethyl)-3-(quinolin-8-yl) urea], half-maximal inhibition at AChE (IC50) was put at 29.2 ± 1.2 µM.

Consider `CN(C)C(=O)Oc1ccc2[nH]cc(CCNC(=O)Nc3cccc4cccnc34)c2c1` [a4, 3-(2-(3-(quinolin-8-yl)ureido)ethyl)-1H-indol-5-yl dimethylcarbamate], for which the IC50 against BuChE worked out at 3.3 ± 0.2 µM; against AChE, 35.6 ± 0.6 µM. On to `O=C(CNc1cccc2cccnc12)NCCc1c[nH]c2ccc(O)cc12` [b3, N-(2-(5-hydroxy-1H-indol-3-yl)ethyl)-2-(quinolin-8-ylamino) acetamide], for which, at AChE, the IC50 is 4.34 ± 0.1 µM. For the compound `CCN(C)C(=O)Oc1ccc2[nH]cc(CCNc3cccc4cccnc34)c2c1` [c5, 3-(2-(quinolin-8-ylamino)ethyl)-1H-indol-5-yl ethyl (methyl) carbamate], the values for the half-maximal inhibitory concentration (IC50) on BuChE and against AChE were 1.1 ± 0.1 µM and 25.1 ± 1.7 µM, respectively. As to `CN(C)C(=O)Oc1ccc2[nH]cc(CCNc3cccc4cccnc34)c2c1` [c4, 3-(2-(quinolin-8-ylamino)ethyl)-1H-indol-5-yl dimethylcarbamate], the IC50 against BuChE was found to be 0.9 ± 0.1 µM. For the compound `O=C(NCCc1c[nH]c2ccccc12)Nc1cccc2cccnc12` [a1, 1-(2-(1H-indol-3-yl)ethyl)-3-(quinolin-8-yl) urea], on BuChE, inhibition was half-maximal at 10.3 ± 0.7 µM (IC50). Still for that read-out and setting: next, `Oc1ccc2[nH]cc(CCNc3cccc4cccnc34)c2c1` [c3, 3-(2-(quinolin-8-ylamino)ethyl)-1H-indol-5-ol]: 4.3 ± 0.4 µM.
